Measured values taken from patent publication WO2020158863A1, “Combined drug of anthracycline compound-containing micelle preparation with immunostimulant” (priority 2019, dated 2020).
Where a name gives a salt, the structure may show the parent alone.

Experiments:
[1] = tested on: GL261 cells; test: ICD marker expression on cell surface, flow cytometry, GL261 cells; assay type: cell-based, mouse; conditions: 24 h; negative control; Fig. 8G
[2] = tested on: mouse pancreatic cancer cells KPC; test: IC50 for mouse pancreatic cancer cells KPC (Experimental Example 13-1); assay type: cell-based; conditions: Pancreatic cancer cell
[3] = tested on: KPC cells; test: ICD marker expression, flow cytometry, KPC cells (Experimental Example 13-2); assay type: cell-based, mouse; conditions: 24 h, Fig. 21; for HSP70 level / HSP90 level / calreticulin level: 1 μg/mL or 5 μg/mL
[4] = tested on: mouse glioblastoma (GBM) cells GL261; test: in vitro cytotoxicity assay (Experimental Example 3); assay type: cell-based; conditions: 3 h exposure, 48 h incubation; Fig. 3
[5] = tested on: GL261 cells; test: Cytotoxic activity (IC50), GL261 cells (Experimental Example 6)
[6] = tested on: CT2A cells; test: Cytotoxic activity (IC50), CT2A cells (Experimental Example 6); assay type: cell-based, mouse; conditions: PTEN-negative; 48 h; Fig. 8F
[7] = tested on: GL261-luc tumor; test: Orthotopic GL261-luc tumor in wild type mice (Experimental Example 7-1); assay type: in vivo, mouse; conditions: wild type C57/BL6; 5 mg/kg Epi equivalent
[8] = tested on: GL261-luc tumor; test: Orthotopic GL261-luc tumor in nude mice (Experimental Example 7-1); assay type: in vivo, mouse; conditions: nude BALB/c; 5 mg/kg Epi equivalent
[9] = tested on: PD-L1; test: PD-L1 expression in CT2A tumors, flow cytometry (Experimental Example 10); assay type: in vivo, mouse; conditions: 8 days after single tail vein injection, 6 mg/kg Epi equivalent; Fig. 16
[10] = tested on: various cancer cells (MCA205, AB12, GL261, CT2A, LL2, C26); test: IC50 against various cancer cells (Experimental Example 11-1); assay type: cell-based
[11] = tested on: fibrosarcoma cell carcinoma line (MCA205, Sarcoma180, NIH3T3, HT1080); test: IC50 against fibrosarcoma cell lines (Experimental Example 12-1); assay type: cell-based

## [NH2][Pt]([NH2])([Cl])[Cl] [CDDP, Cisplatin]
[1]
  ICD marker level: did not significantly increase the marker

## COc1cccc2c1C(=O)c1c(O)c3c(c(O)c1C2=O)C[C@@](O)(C(=O)CO)C[C@@H]3O[C@H]1C[C@H](N)[C@H](O)[C@H](C)O1 [DOX, doxorubicin hydrochloride]
[2]
  IC50: ≤ 2 µg/mL
[3]
  HSP70 level: significantly increased
  HSP90 level: significantly increased
  calreticulin level: significantly increased

## COc1cccc2c1C(=O)c1c(O)c3c(c(O)c1C2=O)C[C@@](O)(C(=O)CO)C[C@@H]3O[C@H]1C[C@H](N)[C@@H](O)[C@H](C)O1 [Epi, Epirubicin hydrochloride]
[4]
  in vitro cytotoxicity: high in vitro cytotoxicity
[5]; Mus musculus, GL261, 48 h
  IC50: < 1 µg/mL
[5]; PTEN-positive, 48 h, Fig. 8E
  cytotoxic activity: high cytotoxic activity
[6]
  cytotoxic activity: high activity against PTEN-negative CT2A cells, comparable to the activity against GL261 cells
[7]
  tumor growth rate / tumor-derived luminescence: the tumor growth rate was not suppressed
[8]
  tumor growth rate: the tumor growth rate was not suppressed
[9]
  expression level of PD-L1 in tumor cells: no such reduction in expression levels occurred
[10]
  IC50: ≤ 1 µg/mL
[11]
  IC50: ≤ 2 µg/mL
[3]
  HSP70 level: significantly increased
  HSP90 level: significantly increased
  calreticulin level: significantly increased

## CCc1c2c(nc3ccc(OC(=O)N4CCC(N5CCCCC5)CC4)cc13)-c1cc3c(c(=O)n1C2)COC(=O)[C@]3(O)CC [irinotecan]
[3]; any concentration
  ICD marker level: did not significantly increase the marker at any concentration
